The structures appear in SMILES notation.

The first assay has as its system Haemonchus contortus L3. The experiment in a line: Haemonchus contortus L3 (HcL3) in vitro test. The format is cell-based. The conditions noted are these: minimum effective dose; table of Examples 5-11. As for the experimental part:
The Haemonchus contortus L3 (HcL3) test is used to measure the biological activities of the compounds claimed. The assay involves in vitro testing against H. contortus conducted according to the following general procedure.
HcL3 larvae were collected from infected sheep and, after cleaning, stored in water at 12° C. for up to one month. Viable infective larvae were exsheathed using 10% hypochlorite in Glucose Tyrodes balanced salt solution containing antibiotics and resuspended in basal medium (20 g/l bacto-tryptone, 5 g/l yeast extract, 57 g/l glucose, 0.8 g/l di-Potassium hydrogen orthophosphate, 0.8 g/l potassium dihydrogen orthophosphate and […] Hepes with antibiotics). 95 μl worm suspension was added to each well of a 96 well plate.
Test compounds were dissolved in dimethylsulfoxide to give a working stock solution of 20 mg/ml. The stock concentration was diluted 1:10 in Basal media to give 2.0 mg/ml (10% DMSO). 5 μl of the stock compound solution was added to the worm suspension to give a final concentration of 100 μg/ml. Plates were sealed with pressure sensitive film and incubated at 37° C. Observations were made 2 hrs, 24 hrs, 48 hrs, 72 hrs and 4 days post-treatment using an inverted microscope. Activity was recorded if a significant proportion of the worms were dead or adversely affected by the compound when compared to the control well containing 1% DMSO. Compounds were initially tested at 100 μg/ml, wherefrom relevant dose responses (100, 30, 10, 3, 1, 0.3, 0.1 μg/ml) were conducted in duplicate experiments to generate n=2. Data was recorded as minimum effective dose.
For `CC(C#N)(COc1ccc(C#N)cc1Cl)NC(=O)c1ccc(S(F)(F)(F)(F)F)cc1` (stereo not drawn) [Example 5, N-[2-(2-Chloro-4-cyanophenoxy)-1-cyano-1-methylethyl]-4-(pentafluorothio)benzamide], the “H.c. (L3) MED” value was determined as 3 µg/mL.
The same measure, in the same setting: the figure for `CC(C#N)(COc1ccc(C#N)c(Cl)c1)NC(=O)c1ccc(S(F)(F)(F)(F)F)cc1` (stereo not drawn) [Example 6, N-[2-(3-Chloro-4-cyanophenoxy)-1-cyano-1-methylethyl]-4-(pentafluorothio)benzamide] is 3 µg/mL; for `CC(C#N)(COc1cc(C#N)cc(C(F)(F)F)c1)NC(=O)c1ccc(S(F)(F)(F)(F)F)cc1` (stereo not drawn) [Example 7, N-{1-cyano-2-[3-cyano-5-(trifluoromethyl)phenoxy]-1-methylethyl}-4-(pentafluorothio)benzamide] it is 30 µg/mL.
As for `CC(C#N)(COc1c(F)cc(F)cc1C#N)NC(=O)c1ccc(S(F)(F)(F)(F)F)cc1` (stereo not drawn) [Example 8, N-[1-Cyano-2-(2-cyano-4,6-difluorophenoxy)-1-methylethyl]-4-(pentafluorothio)benzamide], the “H.c. (L3) MED” value turned out to be 30 µg/mL.
On the same count and under the same terms, the result for `CC(C#N)(COc1cc(C#N)ccc1C#N)NC(=O)c1ccc(S(F)(F)(F)(F)F)cc1` (stereo not drawn) [Example 9, N-[1-Cyano-2-(3,6-dicyanophenoxy)-1-methylethyl]-4-(pentafluorothio)benzamide] reads 3 µg/mL.
On the same count and under the same terms, the figure for `CC(C#N)(COc1ccc(Br)cc1C(F)(F)F)NC(=O)c1ccc(S(F)(F)(F)(F)F)cc1` (stereo not drawn) [Example 10, N-{2-[4-Bromo-2-(trifluoromethyl)phenoxy]-1-cyano-1-methylethyl}-4-(pentafluorothio)benzamide] is 10 µg/mL; for `CC(C#N)(COc1ccc(C#N)cc1Br)NC(=O)c1ccc(S(F)(F)(F)(F)F)cc1` (stereo not drawn) [Example 11, N-[2-(2-Bromo-4-cyanophenoxy)-1-cyano-1-methylethyl]-4-(pentafluorothio)benzamide] it is 3 µg/mL.

The same assay, now with this note: minimum effective dose; table of Examples 13a-42; 13a/b, 27a/b, 29a/b, 33a/b tested as mixtures of regioisomers.
Take `CC(C#N)(COc1cc(Cl)cc(C#N)c1)NC(=O)c1ccc(S(F)(F)(F)(F)F)cc1` (stereo not drawn) [Example 14, N-[2-(3-Chloro-5-cyanophenoxy)-1-cyano-1-methylethyl]-4-(pentafluorothio)benzamide]: the “H.c. (L3) MED” value came out at 3 µg/mL.
For the compound `CC(C#N)(COc1cc(Br)ccc1C#N)NC(=O)c1ccc(S(F)(F)(F)(F)F)cc1` (stereo not drawn) [Example 16, N-[2-(5-Bromo-2-cyanophenoxy)-1-cyano-1-methylethyl]-4-(pentafluorothio)benzamide], the “H.c. (L3) MED” value is 10 µg/mL.
With `CC(C#N)(COc1ccc(Cl)cc1C#N)NC(=O)c1ccc(S(F)(F)(F)(F)F)cc1` (stereo not drawn) [Example 17, N-[2-(4-Chloro-2-cyanophenoxy)-1-cyano-1-methylethyl]-4-(pentafluorothio)benzamide], the “H.c. (L3) MED” value was 3 µg/mL.
On the same count and under the same terms, the figure for `CC(C#N)(COc1cccc(F)c1C#N)NC(=O)c1ccc(S(F)(F)(F)(F)F)cc1` (stereo not drawn) [Example 18, N-[1-Cyano-2-(2-cyano-3-fluorophenoxy)-1-methylethyl]-4-(pentafluorothio)benzamide] is 10 µg/mL.
Same read-out and setting: the result for `CC(C#N)(COc1ccccc1C#N)NC(=O)c1ccc(S(F)(F)(F)(F)F)cc1` (stereo not drawn) [Example 19, N-[1-Cyano-2-(2-cyanophenoxy)-1-methylethyl]-4-(pentafluorothio)benzamide] reads 10 µg/mL; that for `CC(C#N)(COc1ccc(I)cc1)NC(=O)c1ccc(S(F)(F)(F)(F)F)cc1` (stereo not drawn) [Example 20, N-[1-Cyano-2-(4-iodophenoxy)-1-methylethyl]-4-(pentafluorothio)benzamide], 3 µg/mL; that for `CC(C#N)(COc1ccccc1C(F)(F)F)NC(=O)c1ccc(S(F)(F)(F)(F)F)cc1` (stereo not drawn) [Example 21, N-{1-Cyano-1-methyl-2-[2-(trifluoromethyl)phenoxy]ethyl}-4-(pentafluorothio)benzamide], 30 µg/mL.
The same measure, in the same setting: the result for `CC(C#N)(COc1ccc(C#N)cc1)NC(=O)c1ccc(S(F)(F)(F)(F)F)cc1` (stereo not drawn) [Example 22, N-[1-Cyano-2-(4-cyanophenoxy)-1-methylethyl]-4-(pentafluorothio)benzamide] reads 10 µg/mL; that for `CC(C#N)(COc1cc(F)cc(Cl)c1)NC(=O)c1ccc(S(F)(F)(F)(F)F)cc1` (stereo not drawn) [Example 23, N-[2-(3-Chloro-5-fluorophenoxy)-1-cyano-1-methylethyl]-4-(pentafluorothio)benzamide], 30 µg/mL.
Consider `CC(C#N)(COc1cc(Cl)ccc1C#N)NC(=O)c1ccc(S(F)(F)(F)(F)F)cc1` (stereo not drawn) [Example 24, N-[2-(5-Chloro-2-cyanophenoxy)-1-cyano-1-methylethyl]4-(pentafluorothio)benzamide], for which the “H.c. (L3) MED” value came to 3 µg/mL.
As to `CC(C#N)(COc1ccccc1Cl)NC(=O)c1ccc(S(F)(F)(F)(F)F)cc1` (stereo not drawn) [Example 25, N-[2-(2-Chlorophenoxy)-1-cyano-1-methylethyl]-4-(pentafluorothio)benzamide], the “H.c. (L3) MED” value was 10 µg/mL.
Consider `CC(C#N)(COc1cccc(Cl)c1C#N)NC(=O)c1ccc(S(F)(F)(F)(F)F)cc1` (stereo not drawn) [Example 26, N-[2-(3-Chloro-2-cyanophenoxy)-1-cyano-1-methylethyl]-4-(pentafluorothio)benzamide], for which the “H.c. (L3) MED” value was 10 µg/mL.
Same read-out and setting: the figure for `CC(C#N)(COc1ccc(F)cc1C#N)NC(=O)c1ccc(S(F)(F)(F)(F)F)cc1` (stereo not drawn) [Example 27a, N-[1-Cyano-2-(2-cyano-4-fluorophenoxy)-1-methylethyl]-4-(pentafluorothio)benzamide] is 3 µg/mL; for `CC(C#N)(COc1ccc(F)c(C#N)c1)NC(=O)c1ccc(S(F)(F)(F)(F)F)cc1` (stereo not drawn) [Example 27b, N-[1-Cyano-2-(3-cyano-4-fluorophenoxy)-1-methylethyl]-4-(pentafluorothio)benzamide] it is 3 µg/mL; for `CC(C#N)(COc1ccc(Cl)cc1F)NC(=O)c1ccc(S(F)(F)(F)(F)F)cc1` (stereo not drawn) [Example 28, N-[2-(4-Chloro-2-fluorophenoxy)-1-cyano-1-methylethyl]-4-(pentafluorothio)benzamide] it is 3 µg/mL.
`CC(C#N)(COc1ccc(C#N)cc1F)NC(=O)c1ccc(S(F)(F)(F)(F)F)cc1` (stereo not drawn) [Example 29a, N-[1-Cyano-2-(4-cyano-2-fluorophenoxy)-1-methylethyl]-4-(pentafluorothio)benzamide]: the “H.c. (L3) MED” value is 10 µg/mL.
Same read-out and setting: the result for `CC(C#N)(COc1cc(C#N)ccc1F)NC(=O)c1ccc(S(F)(F)(F)(F)F)cc1` (stereo not drawn) [Example 29b, N-[1-Cyano-2-(5-cyano-2-fluorophenoxy)-1-methylethyl]-4-(pentafluorothio)benzamide] reads 10 µg/mL; that for `CC(C#N)(COc1ccc(C(F)(F)F)cc1F)NC(=O)c1ccc(S(F)(F)(F)(F)F)cc1` (stereo not drawn) [Example 30, N-{1-Cyano-2-[2-fluoro-4-(trifluoromethyl)phenoxy]-1-methylethyl}-4-(pentafluorothio)benzamide], 10 µg/mL; that for `CC(C#N)(COc1cccc(Cl)c1)NC(=O)c1ccc(S(F)(F)(F)(F)F)cc1` (stereo not drawn) [Example 31], 10 µg/mL.
The same measure, in the same setting: the result for `CC(C#N)(COc1cc(C#N)ccc1Br)NC(=O)c1ccc(S(F)(F)(F)(F)F)cc1` (stereo not drawn) [Example 32, N-[2-(2-Bromo-5-cyanophenoxy)-1-cyano-1-methylethyl]-4-(pentafluorothio)benzamide] reads 3 µg/mL.
Same read-out and setting: the figure for `CC(C#N)(COc1ccc(F)cc1Br)NC(=O)c1ccc(S(F)(F)(F)(F)F)cc1` (stereo not drawn) [Example 33a, N-[2-(2-Bromo-4-fluorophenoxy)-1-cyano-1-methylethyl]-4-(pentafluorothio)benzamide] is 10 µg/mL; for `CC(C#N)(COc1ccc(F)c(Br)c1)NC(=O)c1ccc(S(F)(F)(F)(F)F)cc1` (stereo not drawn) [Example 33b, N-[2-(3-Bromo-4-fluorophenoxy)-1-cyano-1-methylethyl]-4-(pentafluorothio)benzamide] it is 10 µg/mL; for `CC(C#N)(COc1ccc(Br)cc1F)NC(=O)c1ccc(S(F)(F)(F)(F)F)cc1` (stereo not drawn) [Example 34, N-[2-(4-Bromo-2-fluorophenoxy)-1-cyano-1-methylethyl]-4-(pentafluorothio)benzamide] it is 10 µg/mL.
`CC(C#N)(COc1cc(Br)cc(C#N)c1)NC(=O)c1ccc(S(F)(F)(F)(F)F)cc1` (stereo not drawn) [Example 35, N-[2-(3-Bromo-5-cyanophenoxy)-1-cyano-1-methylethyl]-4-(pentafluorothio)benzamide]: the “H.c. (L3) MED” value came to 3 µg/mL.
With `CC(C#N)(COc1cccc(C#N)c1C(F)(F)F)NC(=O)c1ccc(S(F)(F)(F)(F)F)cc1` (stereo not drawn) [Example 36, N-{1-Cyano-2-[3-cyano-2-(trifluoromethyl)phenoxy]-1-methylethyl}-4-(pentafluorothio)benzamide], the “H.c. (L3) MED” value was 10 µg/mL.

Staying with this assay, now noted: minimum effective dose; unit not given.
Consider `CC(C#N)(COc1ccc(Cl)cc1Cl)NC(=O)c1ccc(S(F)(F)(F)(F)F)cc1` (stereo not drawn) [Example 12, N-[1-Cyano-2-(2,4-dichlorophenoxy)-1-methylethyl]-4-(pentafluorothio)benzamide], for which the “in vitro H.c. (L3) MED” value is 3.

The record behind these values is patent US7608604B2, “Antiparasitic agents” (Pfizer Limited, priority 2007, dated 2009).
